Values quoted from earlier work in patent US20140080712A1, “COMPOSITIONS AND METHODS FOR DOUBLE ENCAPSULATION OF A VOLATILE COMPOUND” (AgroFresh Inc., priority 2012, published 2014).

System: ethylene
Conditions: freshness management

SMILES: CC1=CC1 [Sample 1-MCP, 1-methylcyclopropene]
- concentration effective in blocking ethylene: ~100 ppb
